From patent publication US12486254B2, “Uracil derivatives for stimulating read-through of premature termination codons” (Southern Research Institute, priority 2022, dated 2025)

tested on: G542X#10-HBE5x5; test: Read-through of a premature termination codon, G542X#10-HBE5x5 (Table 3); format: cell-based; conditions: with G418
Protocol: The compounds shown in Table 1 were evaluated for their ability to stimulate read-through of a premature termination codon, and their respective activities are shown in Tables 2 and 3 below.

| Compound | EC50 [µM] |
| --- | --- |
| CCn1c(=O)c(C(=O)CN2CCC[C@H]2C(=O)OC)c(N)n(Cc2ccccc2)c1=O [1.23] | ≥ 100 |
| CCn1c(=O)c(C(=O)CN(CC(N)=O)C2CC2)c(N)n(Cc2ccccc2)c1=O [1.35] | ≥ 100 |
| CCn1c(=O)c(C(=O)CN(CC(=O)NC)C(C)C)c(N)n(Cc2ccccc2)c1=O [1.39] | ≥ 100 |
| CCn1c(=O)c(C(=O)CN(CC(=O)N(C)C)C(C)C)c(N)n(Cc2ccccc2)c1=O [1.40] | ≥ 100 |
| CCCNC(=O)CN(C)CC(=O)c1c(N)n(Cc2ccccc2)c(=O)n(C)c1=O [1.42] | ≥ 100 |
| CCn1c(=O)c(C(=O)CN2CCCCC2C(N)=O)c(N)n(Cc2ccccc2)c1=O (stereo not shown) [1.48] | ≥ 100 |
| NC(=O)C1CCCCN1CC(=O)c1c(N)n(Cc2ccccc2)c(=O)n(C2CCCCC2)c1=O (stereo not shown) [1.51] | ≥ 100 |
| NC(=O)C1CCCCN1CC(=O)c1c(N)n(-c2ccc(F)cc2)c(=O)n(Cc2ccccc2)c1=O (stereo not shown) [1.65] | ≥ 100 |
| CCN(CC)C(=O)C1CCCN(CC(=O)c2c(N)n(Cc3ccccc3)c(=O)n(CC)c2=O)C1 (stereo not shown) [1.66] | ≥ 100 |
| CCn1c(=O)c(C(=O)CN2CCCCC2C(=O)N(C)C)c(N)n(Cc2ccccc2)c1=O (stereo not shown) [1.67] | ≥ 100 |
| CC(C)N(CC(=O)c1c(N)n(Cc2ccc(F)cc2)c(=O)n(Cc2ccc(F)cc2)c1=O)CC(=O)N(C)C [1.74] | ≥ 100 |
| CCn1c(=O)c(C(=O)CN2CCCCC2C(=O)N2CCOCC2)c(N)n(Cc2ccccc2)c1=O (stereo not shown) [1.87] | ≥ 100 |
| CCn1c(=O)c(C(=O)CN2CCCCC2C(N)=O)c(N)n(Cc2ccc(F)cc2)c1=O (stereo not shown) [1.103] | ≥ 100 |
| CCn1c(=O)c(C(=O)CN2CCCCC2c2nc3ccccc3n2C)c(N)n(Cc2ccccc2)c1=O (stereo not shown) [1.105] | ≥ 100 |
| CCn1c(=O)c(C(=O)CN2CCCCC2c2nc3ccccc3[nH]2)c(N)n(Cc2ccccc2)c1=O (stereo not shown) [1.106] | ≥ 100 |
| CCn1c(=O)c(C(=O)CN2CCCC[C@@H]2C(N)=O)c(N)n([C@H](C)c2ccccc2)c1=O [1.125] | ≥ 100 |
| CCn1c(=O)c(C(=O)CN2CCCC[C@@H]2C(=O)N(C)C)c(N)n(Cc2ccc(F)cc2)c1=O [1.126] | ≥ 100 |
| CCn1c(=O)c(C(=O)CN2CCCC[C@@H]2C(=O)N2CCCCC2)c(N)n(Cc2ccc(F)cc2)c1=O [1.129] | ≥ 100 |
| CCn1c(=O)c(C(=O)CN2CCCC[C@@H]2C(=O)N2CCOCC2)c(N)n(Cc2ccc(F)cc2)c1=O [1.130] | ≥ 100 |
| CCn1c(=O)c(C(=O)CN(CC(=O)N(C)C)C(C)C)c(N)n(Cc2ccc(F)cc2)c1=O [1.139] | ≥ 100 |

Further lines, results first:

| EC50 [µM] | Compound |
| --- | --- |
| ≥ 100 | CCOC(=O)C1CCN(CC(=O)c2c(N)n(Cc3ccccc3)c(=O)n(CC)c2=O)CC1 [1.6] |
| ≥ 100 | CCn1c(=O)c(C(=O)CNC2CCOCC2)c(N)n(Cc2ccccc2)c1=O [1.10] |
| ≥ 100 | CCn1c(=O)c(C(=O)CN2CCOCC2)c(N)n(Cc2ccccc2)c1=O [1.11] |
| ≥ 100 | CCn1c(=O)c(C(=O)CN[C@H](C(=O)OC)C(C)C)c(N)n(Cc2ccccc2)c1=O [1.15] |
| ≥ 100 | CCn1c(=O)c(C(=O)CN[C@@H](Cc2cnc[nH]2)C(=O)OC)c(N)n(Cc2ccccc2)c1=O [1.17] |
| ≥ 100 | CCOC(=O)CN(CC(=O)c1c(N)n(Cc2ccccc2)c(=O)n(CC)c1=O)C(C)C [1.18, ethyl 2-((2-(6-amino-1-benzyl-3-ethyl-2,4-dioxo-1,2,3,4-tetrahydropyrimidin-5-yl)-2-oxoethyl)(isopropyl)amino)acetate] |
| ≥ 100 | CCn1c(=O)c(C(=O)CN(C)C(C)C)c(N)n(Cc2ccccc2)c1=O [1.20] |
| 30 | NC(=O)C1CCCCN1CC(=O)c1c(N)n(Cc2ccccc2)c(=O)n(Cc2ccccc2)c1=O (stereo not shown) [1.50] |
| 62.9 | CN(C)C(=O)C1CCCCN1CC(=O)c1c(N)n(Cc2ccc(F)cc2)c(=O)n(Cc2ccc(F)cc2)c1=O (stereo not shown) [1.73] |
| 25 | NC(=O)C1CCCCN1CC(=O)c1c(N)n(Cc2cccc(Cl)c2)c(=O)n(Cc2cccc(Cl)c2)c1=O (stereo not shown) [1.104] |
| 50.5 | CCn1c(=O)c(C(=O)CN(CC(N)=O)C(C)C)c(N)n(Cc2ccc(F)cc2)c1=O [1.133] |
